Columns and labels:
[1] = system: patient melanoma surgical explant cells; experiment: Matrigel transwell invasion assay, patient explant cells; format: cell-based, human; conditions: TAK475 10 μM, compactin 2 μM, IA65 2 μM or OSMI1 40 μM; 20 hours
Method: (§1) Transwell Migration Assays—Transwell migration assays were performed as previously described (Hooper, R., et al., 2015, Molecular & Cellular Biology, 35:2790-2798). Briefly, Matrigel® transwell chambers (Corning, Bedford, MA) were hydrated with serum-free OptiMEM for 2 hours (37° C., 5% CO2) prior to the addition of 2,500 cells/well. Growth optimal media was placed on the bottom of the chamber prior to incubation (20 hours; 37° C., 5% CO2). After incubation, media was removed, and edges were cleaned before methanol fixation and staining with crystal violet (0.5%, 2 min). Images were taken by EVOS cell imager and quantified on ImageJ.
Isolation of Cells from Patient Surgical Explants—Tissue was incubated in DMEM containing Liberase® TL (Roche Applied Science; 37° C., 30 min). Following incubation, tissue was cut using a sharp razor and dissociated through 50 μM Medicon screens (Becton Dickinson Biosciences, San Jose, CA; 2 min). Tissue samples were resuspended in DFD media (DMEM, 20% FBS; 500 ug/ml DNAse I, Sigma, St. Louis, MO) and passed through an 18-gauge syringe to break up clumps of cells before filtration (70 μm, Corning, Glendale, AZ, centrifugation and resuspension in DMEM (2% FBS; 1% Gentamycin) for 3 days before use.

[2] = system: B16N murine melanoma cells; experiment: Matrigel transwell invasion assay, B16N cells; format: cell-based; parameters: invasion (Matrigel transwell): dose or concentration left out as unconfirmed
Method: as §1

[3] = system: WM983 human melanoma cells; experiment: Matrigel transwell invasion assay, WM983 cells; format: cell-based; parameters: invasion (Matrigel transwell): dose or concentration left out as unconfirmed
Method: as §1

[4] = system: SOCE in WM983 human melanoma cells; experiment: SOCE measurement (Fura2, Tg then Ca2+ re-addition) in WM983 cells; format: cell-based
Method: (§2) UV Exposure—Cells were plated on glass coverslips for 24 hours before changing to PBS. Lids were replaced with a thin layer of taut plastic wrap before irradiating with a broadband UV spectrum containing 35% UVA and 65% UVB (with peak emission at 313 nm in the UVB range (De Fabo, E. C., et al, 2004, Cancer Research, 64:6372-6376)). Cells received a total UV dose of 175 J/m^2 over 90 seconds at a rate of 1.94 W/m^2. Approximately 80% of the melanoma cells survive this exposure. Cells were passaged 1:10 every 3 days and cultured under growth optimal conditions for the indicated time period (see Cell Culture below) before subsequent experimentation.
(§3) SOCE Measurement—Cells grown on glass coverslips were incubated in a cation-safe buffer (107 mM NaCl, 7.2 mM KCl, 1.2 mM MgCl2, 11.5 mM Glucose, 20 mM HEPES-NaOH, 1 mM CaCl2, pH 7.2) and loaded with Fura2-acetoxymethylester (Fura2-AM; 2 μM) for 30 min at 24° C. as previously described (Go, C. K., et al, 2019, Science Signaling, 12; Hooper, R., et al., 2015, Molecular and Cellular Biology, 35:2790-2798). Cells were washed and allowed to de-esterify for a minimum of 30 min at 24° C. Following de-esterification, cells were treated with 2 μM Thapsigargin (SERCA inhibitor) for 10 minutes prior to imaging. Ca^2+ measurements were taken using a Leica DMI 6000B fluorescence microscope controlled by Slidebook software (Intelligent Imaging Innovations, Denver, CO). Fluorescence emission at 505 nm was monitored in response to excitation at alternating 340 nm and 380 nm wavelengths at a frequency of 0.67 Hz; intracellular Ca^2+ measurements are shown at 340/380 nm ratios obtained from groups (2-45 for patient samples, 35-45 for established cell lines) of single cells.

[5] = system: SOCE in UACC257 human melanoma cells; experiment: SOCE measurement (Fura2, Tg then Ca2+ re-addition) in UACC257 cells; format: cell-based; conditions: non-SOCE suppressed UACC257 UV5 cells; overnight treatment
Method: as §2
(§4) SOCE Measurement—Cells grown on glass coverslips were incubated in a cation-safe buffer (107 mM NaCl, 7.2 mM KCl, 1.2 mM MgCl2, 11.5 mM Glucose, 20 mM HEPES-NaOH, 1 mM CaCl2, pH 7.2) and loaded with Fura2-acetoxymethylester (Fura2-AM; 2 μM) for 30 min at 24° C. as previously described (Go, C. K., et al, 2019, Science Signaling, 12; Hooper, R., et al., 2015, Molecular and Cellular Biology, 35:2790-2798). Cells were washed and allowed to de-esterify for a minimum of 30 min at 24° C. […] Ca^2+ measurements were taken using a Leica DMI 6000B fluorescence microscope controlled by Slidebook software (Intelligent Imaging Innovations, Denver, CO). […]

[6] = system: SOCE in patient melanoma surgical explant cells; experiment: SOCE measurement in cells from patient surgical explants; format: cell-based, human; conditions: patient explant cells treated with drug in presence of Tg, 15 minutes
Method: as §3
Isolation of Cells from Patient Surgical Explants—Tissue was incubated in DMEM containing Liberase® TL (Roche Applied Science; 37° C., 30 min). Following incubation, tissue was cut using a sharp razor and dissociated through 50 μM Medicon screens (Becton Dickinson Biosciences, San Jose, CA; 2 min). […]

melanoma metastasis = conditions: mice; literature reports; cited from earlier work
[7] = system: melanoma cells (WM983, B16N); experiment: Viability assay (Trypan Blue); format: cell-based; conditions: 2 μM IA65 overnight, control, UV2, UV5 cells
Method: Viability Assays—500,000 cells were plated in 24 well plates overnight in the absence or presence of 2 μM IA65. Cells were then trypsinized with 0.25% Trypsin-EDTA for 10 minutes at 37° C. Following, cells were treated with 0.4% Trypan Blue and placed in a Bio-Rad slidereader and the number of stained vs. unstained cells compared.

[8] = system: WM983 human melanoma cells; experiment: Scratch (wound) migration assay, WM983 cells; format: cell-based; conditions: 2 μM IA65, 0-, 10-, 20-hour
Method: Migration Assay—Cells were plated on glass coverslips (Ibidi, Fitchburg, WI) overnight to form a complete monolayer before “wounding” with a p20 pipette tip. Coverslips were placed in an incubation chamber (37° C.; 5% CO2) and monitored by confocal microscopy (Leica SP8 Laser Scanning Microscope). Z-stack brightfield images were obtained every 20 minutes for 20 hours; the % of the wound that was refilled over time was calculated using ImageJ.

[9] = system: SOCE in B16N murine melanoma cells; experiment: SOCE measurement (Fura2, Tg then Ca2+ re-addition) in B16N cells; format: cell-based; conditions: B16N control, UV2, UV5, O1C44; 2 μM IA65
Method: as §2, §4

## COc1ccccc1[C@@H](NS(=O)(=O)c1ccc2[nH]c(=O)ccc2c1)C(=O)N(Cc1ccco1)Cc1cccs1 [OSMI1]
[1]
  invasion in vitro of patient cells: diminished invasion
[2]; SOCE-suppressed B16N cells, siRNA targeting OGT
  invasion (Matrigel transwell): reduced invasion
[3]; SOCE-suppressed WM983 cells, siRNA targeting OGT
  invasion (Matrigel transwell): reduced invasion

## COc1cccc([C@H]2O[C@H](CC(=O)N3CCC(CC(=O)O)CC3)C(=O)N(CC(C)(C)COC(C)=O)c3ccc(Cl)cc32)c1OC [TAK475]
[1]
  invasion in vitro of patient cells: diminished invasion
[4]; UV5 WM983 cells, 24 hr treatment
  SOCE: markedly enhanced
[4]; untreated WM983 cells, cholesterol synthesis inhibitor overnight
  SOCE: neither agent significantly affected SOCE
[5]
  SOCE: no change
[6]
  change in SOCE in patient samples: significantly enhanced SOCE
[3]; UV5 WM983 cells, transwell, 20 hours
  UV-induced increases in melanoma invasiveness through Matrigel: abrogated UV-induced increases in melanoma invasiveness
[3]; untreated (control) WM983 cells
  invasiveness through Matrigel: no effect on invasiveness

## O=C(O)Cc1cccc(OCCCN(Cc2cccc(C(F)(F)F)c2Cl)CC(c2ccccc2)c2ccccc2)c1 [GW3965]
Melanoma metastasis
  melanoma metastasis: suppressed

## O=C(O)c1ccc(Nc2nc(C(F)(F)F)c(-c3ccccc3)s2)cc1 [IA65, 4-((5-Phenyl-4-(trifluoromethyl)thiazol-2-yl)amino)benzoic acid]
[1]
  invasion in vitro of patient cells: diminished invasion
[4]; UV2 and UV5 WM983 cells, 2 μM IA65, 15 minutes
  UV-induced SOCE suppression: strikingly reversed UV-induced SOCE suppression
[4]; untreated (non-irradiated) WM983 cells, 2 μM IA65, 15 minutes
  SOCE: no effect
[7]
  cell viability: no effect
[8]
  UV-induced enhanced cell migration (scratch): did not have UV-induced enhanced cell migration
[9]
  SOCE (reversal of SOCE suppression): reversal of SOCE suppression
[2]; B16N control, UV2, UV5, O1C44, 2 μM IA65
  invasion through Matrigel transwell: inhibition of invasiveness
[6]
  change in SOCE in patient samples: No significant effect
[3]; WM983 control, UV2, UV5, 2 μM IA65, 20 hours
  invasion through Matrigel in a transwell assay: failed to invade

## O=S(=O)(c1ccccc1)N(CC(F)(F)F)c1ccc(C(O)(C(F)(F)F)C(F)(F)F)cc1 [T0901317]
Melanoma metastasis
  melanoma metastasis: suppressed

— patent US20240058310A1, “METHODS OF TREATING DISEASES AND DISORDERS ASSOCIATED WITH CALCIUM ION SIGNALING” (Temple University-Of the Commonwealth System of Higher …, priority 2022, published 2024)
